How the values were obtained:
barnyardgrass [1] = experiment: Test A preemergence; format: in vivo, Echinochloa crus-galli; conditions: preemergence
In short: (§1)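 Seeds were sown in a loam soil–sand blend and given a directed soil spray preemergence; postemergence plants at 2–10 cm, one- to two-leaf stage, were sprayed with compound in non-phytotoxic solvent with surfactant. After about 10 days in a greenhouse, injury was visually rated against untreated controls (0 = no effect, 100 = complete control).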

crabgrass, large [2] = experiment: Test A preemergence; format: in vivo, Digitaria sanguinalis; conditions: preemergence; for Crabgrass, Large plant response rating (0 to 100 scale): 125 g ai/ha, visual injury approx. 10 days after treatment; for Crabgrass, Large plant response rating: 500 g ai/ha, visual injury after approx. 10 days, 0 to 100 scale (0 no effect, 100 complete control)
In short: as §1

foxtail, giant [3] = experiment: Test A preemergence; format: in vivo, Setaria faberii; conditions: preemergence; for Foxtail, Giant plant response rating (0 to 100 scale): 125 g ai/ha, visual injury approx. 10 days after treatment; for Foxtail, Giant plant response rating: 500 g ai/ha, visual injury after approx. 10 days, 0 to 100 scale (0 no effect, 100 complete control)
In short: as §1

morningglory [4] = experiment: Test A preemergence; format: in vivo, Ipomoea spp.; conditions: preemergence; for Morningglory plant response rating (0 to 100 scale): 125 g ai/ha, visual injury approx. 10 days after treatment; for Morningglory plant response rating: 500 g ai/ha, visual injury after approx. 10 days, 0 to 100 scale (0 no effect, 100 complete control)
In short: as §1

pigweed [5] = experiment: Test A preemergence; format: in vivo, Amaranthus retroflexus; conditions: preemergence; for Pigweed plant response rating (0 to 100 scale): 125 g ai/ha, visual injury approx. 10 days after treatment; for Pigweed plant response rating: 500 g ai/ha, visual injury after approx. 10 days, 0 to 100 scale (0 no effect, 100 complete control)
In short: as §1

velvetleaf [6] = experiment: Test A preemergence; format: in vivo, Abutilon theophrasti; conditions: preemergence; for Velvetleaf plant response rating (0 to 100 scale): 125 g ai/ha, visual injury approx. 10 days after treatment; for Velvetleaf plant response rating: 500 g ai/ha, visual injury after approx. 10 days, 0 to 100 scale (0 no effect, 100 complete control)
In short: as §1

wheat [7] = experiment: Test A preemergence; format: in vivo, Triticum aestivum; conditions: preemergence; for Wheat plant response rating (0 to 100 scale): 125 g ai/ha, visual injury approx. 10 days after treatment; for Wheat plant response rating: 500 g ai/ha, visual injury after approx. 10 days, 0 to 100 scale (0 no effect, 100 complete control)
In short: as §1

corn [8] = experiment: Test A preemergence; format: in vivo, Zea mays; conditions: preemergence; for Corn plant response rating (0 to 100 scale): 125 g ai/ha, visual injury approx. 10 days after treatment; for Corn plant response rating: 500 g ai/ha, visual injury after approx. 10 days, 0 to 100 scale (0 no effect, 100 complete control)
In short: as §1

barnyardgrass [9] = experiment: Test A postemergence; format: in vivo, Echinochloa crus-galli
In short: as §1

crabgrass, large [10] = experiment: Test A postemergence; format: in vivo, Digitaria sanguinalis
In short: as §1

foxtail, giant [11] = experiment: Test A postemergence; format: in vivo, Setaria faberii
In short: as §1

morningglory [12] = experiment: Test A postemergence; format: in vivo, Ipomoea spp.
In short: as §1

pigweed [13] = experiment: Test A postemergence; format: in vivo, Amaranthus retroflexus
In short: as §1

velvetleaf [14] = experiment: Test A postemergence; format: in vivo, Abutilon theophrasti
In short: as §1

wheat [15] = experiment: Test A postemergence; format: in vivo, Triticum aestivum
In short: as §1

corn [16] = experiment: Test A postemergence; format: in vivo, Zea mays
In short: as §1

rice = experiment: Test B flood; format: in vivo, Oryza sativa; conditions: 250 g ai/ha, visual rating on 0 to 100 scale (0 no effect, 100 complete control), 13 to 15 days
In short: (§2)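 At two leaves, seedlings received the test compound via the paddy water, pots having been flooded 3 cm over the soil surface and kept so. Greenhouse-held for 13 to 15 days, then judged by eye against controls on a scale running 0 (no effect) to 100 (complete control).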

sedge, umbrella = experiment: Test B flood; format: in vivo, Cyperus difformis; conditions: 250 g ai/ha, visual rating on 0 to 100 scale (0 no effect, 100 complete control), 13 to 15 days
In short: as §2

ducksalad = experiment: Test B flood; format: in vivo, Heteranthera limosa; conditions: 250 g ai/ha, visual rating on 0 to 100 scale (0 no effect, 100 complete control), 13 to 15 days
In short: as §2

barnyardgrass [17] = experiment: Test B flood; format: in vivo, Echinochloa crus-galli; conditions: 250 g ai/ha, visual rating on 0 to 100 scale (0 no effect, 100 complete control), 13 to 15 days
In short: as §2

[18] = 125 g ai/ha, visual injury, 0 to 100 scale, approx. 10 days
[19] = 500 g ai/ha, visual injury after approx. 10 days, 0 to 100 scale (0 no effect, 100 complete control)
[20] = Postemergence, 500 g ai/ha, 0 to 100 scale (0 no effect, 100 complete control)
[21] = postemergence, 125 g ai/ha, about 10 days, visual rating on 0 to 100 scale (0 no effect, 100 complete control)

SMILES	Barnyardgrass plant response rating (barnyardgrass [1]; [18])	Barnyardgrass plant response rating (barnyardgrass [1]; [19])	Crabgrass, Large plant response rating (0 to 100 scale) (crabgrass, large [2])	Crabgrass, Large plant response rating (crabgrass, large [2])	Foxtail, Giant plant response rating (0 to 100 scale) (foxtail, giant [3])	Foxtail, Giant plant response rating (foxtail, giant [3])	Morningglory plant response rating (0 to 100 scale) (morningglory [4])	Morningglory plant response rating (morningglory [4])	Pigweed plant response rating (0 to 100 scale) (pigweed [5])	Pigweed plant response rating (pigweed [5])	Velvetleaf plant response rating (0 to 100 scale) (velvetleaf [6])	Velvetleaf plant response rating (velvetleaf [6])	Wheat plant response rating (0 to 100 scale) (wheat [7])	Wheat plant response rating (wheat [7])	Corn plant response rating (0 to 100 scale) (corn [8])	Corn plant response rating (corn [8])	Barnyardgrass plant response rating (barnyardgrass [9]; [20])	Barnyardgrass plant response rating (barnyardgrass [9]; [21])	Crabgrass, Large plant response rating (crabgrass, large [10]; [20])	Crabgrass, Large plant response rating (crabgrass, large [10]; [21])	other results
CCc1cc(C(=O)NC2CC2)nn1Cc1nc(C(F)(F)F)no1 [Compound 163]	10	60	50	100	20	70	0	70	30	100	10	50	0	10	0	0	40	10	70	20	Foxtail, Giant plant response rating (foxtail, giant [11]; [20]): 80; Foxtail, Giant plant response rating (foxtail, giant [11]; [21]): 10; Morningglory plant response rating (morningglory [12]; [20]): 90; Morningglory plant response rating (morningglory [12]; [21]): 30; Pigweed plant response rating (pigweed [13]; [20]): 90; Pigweed plant response rating (pigweed [13]; [21]): 50; Velvetleaf plant response rating (velvetleaf [14]; [20]): 80; Velvetleaf plant response rating (velvetleaf [14]; [21]): 50; Wheat plant response rating (wheat [15]; [20]): 0; Wheat plant response rating (wheat [15]; [21]): 0; Corn plant response rating (corn [16]; [20]): 30; Corn plant response rating (corn [16]; [21]): 0; Plant response rating, Rice (rice): 0; Plant response rating, Sedge, Umbrella (sedge, umbrella): 0; Plant response rating, Ducksalad (ducksalad): 0; Plant response rating, Barnyardgrass (barnyardgrass [17]): 0
CCCNC(=O)c1cc(CC)n(Cc2nc(C(F)(F)F)no2)n1 [Compound 164]	10	80	80	90	10	70	0	80	20	80	0	10	0	20	0	50	40	10	60	10	Foxtail, Giant plant response rating (foxtail, giant [11]; [20]): 40; Foxtail, Giant plant response rating (foxtail, giant [11]; [21]): 10; Morningglory plant response rating (morningglory [12]; [20]): 70; Morningglory plant response rating (morningglory [12]; [21]): 50; Pigweed plant response rating (pigweed [13]; [20]): 40; Pigweed plant response rating (pigweed [13]; [21]): 20; Velvetleaf plant response rating (velvetleaf [14]; [20]): 60; Velvetleaf plant response rating (velvetleaf [14]; [21]): 20; Wheat plant response rating (wheat [15]; [20]): 20; Wheat plant response rating (wheat [15]; [21]): 0; Corn plant response rating (corn [16]; [20]): 40; Corn plant response rating (corn [16]; [21]): 10; Plant response rating, Rice (rice): 0; Plant response rating, Sedge, Umbrella (sedge, umbrella): 0; Plant response rating, Ducksalad (ducksalad): 0; Plant response rating, Barnyardgrass (barnyardgrass [17]): 0
CCc1cc(-c2ccc(C(F)(F)F)cc2)nn1C(=O)c1ccnc(C(F)(F)F)c1 [Compound 165]	0	0	0	0	0	0	0	0	10	20	0	0	0	0	0	0	10	10	20	10	Foxtail, Giant plant response rating (foxtail, giant [11]; [20]): 10; Foxtail, Giant plant response rating (foxtail, giant [11]; [21]): 10; Morningglory plant response rating (morningglory [12]; [20]): 20; Morningglory plant response rating (morningglory [12]; [21]): 10; Pigweed plant response rating (pigweed [13]; [20]): 80; Pigweed plant response rating (pigweed [13]; [21]): 30; Velvetleaf plant response rating (velvetleaf [14]; [20]): 20; Velvetleaf plant response rating (velvetleaf [14]; [21]): 10; Wheat plant response rating (wheat [15]; [20]): 10; Wheat plant response rating (wheat [15]; [21]): 0; Corn plant response rating (corn [16]; [20]): 10; Corn plant response rating (corn [16]; [21]): 10; Plant response rating, Rice (rice): 0; Plant response rating, Sedge, Umbrella (sedge, umbrella): 0; Plant response rating, Ducksalad (ducksalad): 0; Plant response rating, Barnyardgrass (barnyardgrass [17]): 0
CCCCNC(=O)c1cc(Cl)n(Cc2cccc(C(F)(F)F)c2)n1 [Compound 171]	0	0	0	0	0	0	0	0	0	0	0	0	0	0	0	0	20	0	30	10	Foxtail, Giant plant response rating (foxtail, giant [11]; [20]): 20; Foxtail, Giant plant response rating (foxtail, giant [11]; [21]): 10; Morningglory plant response rating (morningglory [12]; [20]): 30; Morningglory plant response rating (morningglory [12]; [21]): 0; Pigweed plant response rating (pigweed [13]; [20]): 50; Pigweed plant response rating (pigweed [13]; [21]): 20; Velvetleaf plant response rating (velvetleaf [14]; [20]): 30; Velvetleaf plant response rating (velvetleaf [14]; [21]): 20; Wheat plant response rating (wheat [15]; [20]): 0; Wheat plant response rating (wheat [15]; [21]): 0; Corn plant response rating (corn [16]; [20]): 20; Corn plant response rating (corn [16]; [21]): 0; Plant response rating, Rice (rice): 0; Plant response rating, Sedge, Umbrella (sedge, umbrella): 0; Plant response rating, Ducksalad (ducksalad): 0; Plant response rating, Barnyardgrass (barnyardgrass [17]): 0
O=C(NC1CC1)c1cc(Cl)n(Cc2cccc(C(F)(F)F)c2)n1 [Compound 174]	0	0	10	40	0	20	0	0	20	90	0	0	0	0	0	0	10	0	10	0	Foxtail, Giant plant response rating (foxtail, giant [11]; [20]): 0; Foxtail, Giant plant response rating (foxtail, giant [11]; [21]): 0; Morningglory plant response rating (morningglory [12]; [20]): 10; Morningglory plant response rating (morningglory [12]; [21]): 0; Pigweed plant response rating (pigweed [13]; [20]): 90; Pigweed plant response rating (pigweed [13]; [21]): 20; Velvetleaf plant response rating (velvetleaf [14]; [20]): 10; Velvetleaf plant response rating (velvetleaf [14]; [21]): 0; Wheat plant response rating (wheat [15]; [20]): 0; Wheat plant response rating (wheat [15]; [21]): 0; Corn plant response rating (corn [16]; [20]): 10; Corn plant response rating (corn [16]; [21]): 0; Plant response rating, Rice (rice): 0; Plant response rating, Sedge, Umbrella (sedge, umbrella): 0; Plant response rating, Ducksalad (ducksalad): 0; Plant response rating, Barnyardgrass (barnyardgrass [17]): 0

From patent publication US20150105252A1, “SUBSTITUTED PYRAZOLES AS HERBICIDES” (E I DU PONT DE NEMOURS AND COMPANY, priority 2013, published 2015)
